Measurements as given in PMC9822975, “Functional analysis in a model sea anemone reveals phylogenetic complexity and a role in cnidocyte discharge of DEG/ENaC ion channels” (Communications Biology, 2023).
Read-outs that look alike come from different tables or passages of the source.

Tests used:
NeNaC2 = system: T1, NeNaC2; test: two-electrode voltage clamp, Xenopus oocytes; assay type: cell-based, Nematostella vectensis; conditions: channel activated with pH 6.0, -70 mV
T1 construct: full length, homomeric in Xenopus laevis oocytes (pRSSP vector, cRNA); residues H141 and G516 (DEG position)

NeNaC8 = system: T2, NeNaC8; test: two-electrode voltage clamp, Xenopus oocytes; assay type: cell-based, Nematostella vectensis; conditions: -70 mV, read-out: Apparent IC50
T2 construct: full length, homomeric in Xenopus laevis oocytes (pRSSP vector, cRNA)

Compound	IC50 (NeNaC2; inhibition incomplete even at high concentrations, n = 10)	IC50 (NeNaC8; channel opened by bath with 100 nM Ca2+, n = 11)	IC50 (NeNaC2; complete inhibition at high concentrations, n = 14)	IC50 (NeNaC8; 1.8 mM Ca2+ (standard bath), pH 7.4, not competitive with Ca2+, n = 14)
N=C(N)NC(=O)c1nc(Cl)c(N)nc1N [amiloride]	1300 ± 2300 µM	310 ± 180 µM		
N=C(N)c1ccc(N=NNc2ccc(C(=N)N)cc2)cc1 [diminazene]			2.4 ± 0.9 µM	0.124 ± 0.075 µM
